Settings: Liquid, Vibrating tube method

CC(C)(N)CO [2-amino-2-methylpropan-1-ol]
mass density [kg/m3]
Settings	313.06 K	322.98 K	332.91 K	342.84 K	352.79 K	362.65 K
500 kPa	–	922.7	914	905.4	896.8	–
504 kPa	–	–	–	–	–	888
1000 kPa	931.4	922.8	914.4	905.7	897.2	–
1002 kPa	–	–	–	–	–	888.4
2000 kPa	931.9	923.4	915	906.4	897.9	889
3000 kPa	932.4	924	915.6	907	898.5	889.7
4000 kPa	932.9	924.5	916.1	907.6	–	890.5
4001 kPa	–	–	–	–	899.2	–
5000 kPa	933.5	925.1	916.7	908.3	899.9	891.2
6000 kPa	933.9	925.7	917.3	908.9	900.5	891.8
7000 kPa	934.5	926.2	918	909.5	–	892.5
7001 kPa	–	–	–	–	901.2	–
8000 kPa	935	926.8	918.5	–	901.8	–
8001 kPa	–	–	–	910.1	–	893.2
9007 kPa	935.5	927.4	–	–	–	–
9009 kPa	–	–	919.1	910.7	902.4	–
9010 kPa	–	–	–	–	–	893.9
10002 kPa	–	927.8	–	–	–	–
10003 kPa	936	–	919.7	911.3	903.1	894.6
11000 kPa	936.6	928.4	–	–	–	–
11001 kPa	–	–	–	911.9	903.7	895.2
11002 kPa	–	–	920.2	–	–	–
12000 kPa	937	928.9	–	912.5	904.3	895.8
12001 kPa	–	–	920.8	–	–	–
13000 kPa	937.6	929.5	921.3	913.1	–	–
13001 kPa	–	–	–	–	904.9	896.5
14000 kPa	938.1	930.1	921.9	913.6	905.5	897.1
15002 kPa	938.6	–	922.4	–	906.1	–
15003 kPa	–	930.6	–	914.3	–	897.8
16000 kPa	939.1	–	–	–	–	–
16001 kPa	–	–	923	914.8	906.7	898.4
16006 kPa	–	931.1	–	–	–	–
17000 kPa	–	–	–	–	–	899.1
17001 kPa	939.7	931.6	923.5	915.3	907.4	–
18002 kPa	940.2	932.1	924.1	915.9	907.9	899.7
18997 kPa	–	–	–	–	908.5	–
19000 kPa	940.6	932.6	924.6	916.5	–	900.3
20029 kPa	941.1	–	–	–	–	–
20030 kPa	–	933.2	925.2	917.1	909.1	901
21001 kPa	–	–	–	–	909.7	–
21002 kPa	–	–	925.6	–	–	–
21004 kPa	941.7	–	–	–	–	901.6
21005 kPa	–	933.7	–	917.6	–	–
22004 kPa	942.1	934.1	926.2	918.1	910.3	902.2
23000 kPa	–	–	926.7	918.7	910.9	902.8
24003 kPa	–	–	–	–	–	903.3
24004 kPa	943.1	935.2	927.3	919.2	911.4	–
